Data as given in the NIST ThermoML archive (doi:10.1016/j.tca.2012.04.033).

Tests used:
[1] = Crystal; DTA
[2] = xn = mol fraction of the nth substance listed; details: 101 kPa, Liquid, Vibrating tube method
[3] = refractive index (Na D-line) (dimensionless); xn = mol fraction of the nth substance listed; details: 101 kPa, Liquid, Standard Abbe refractometry

C[Si](O[Si](C)(c1ccccc1)c1ccccc1)(c1ccccc1)c1ccccc1 [1,3-dimethyl-1,1,3,3-tetraphenyldisiloxane]
Details	Normal melting temperature [°C]
[1]	49.70

C[Si](O[Si](C)(c1ccccc1)c1ccccc1)(c1ccccc1)c1ccccc1 [1,3-dimethyl-1,1,3,3-tetraphenyldisiloxane] + CC(C)O
303.15 K
Details	mass density, x1 = 0.00125 [kg/m3]	mass density, x1 = 0.00359 [kg/m3]	mass density, x1 = 0.00759 [kg/m3]	mass density, x1 = 0.01218 [kg/m3]	mass density, x1 = 0.01284 [kg/m3]	refractive index, x1 = 0.00125	refractive index, x1 = 0.00359	refractive index, x1 = 0.00759	refractive index, x1 = 0.01218	refractive index, x1 = 0.01284
[2]	778.65	783.03	788.42	794.61	795.14	–	–	–	–	–
[3]	–	–	–	–	–	1.37416	1.37721	1.38094	1.38528	1.38568

C[Si](O[Si](C)(c1ccccc1)c1ccccc1)(c1ccccc1)c1ccccc1 [1,3-dimethyl-1,1,3,3-tetraphenyldisiloxane] + CCCO
303.15 K
Details	mass density, x1 = 0.00161 [kg/m3]	mass density, x1 = 0.00428 [kg/m3]	mass density, x1 = 0.00956 [kg/m3]	mass density, x1 = 0.01076 [kg/m3]	mass density, x1 = 0.01339 [kg/m3]	refractive index, x1 = 0.00161	refractive index, x1 = 0.00428	refractive index, x1 = 0.00956	refractive index, x1 = 0.01076	refractive index, x1 = 0.01339
[2]	797.94	801.12	808.9	810.51	813.97	–	–	–	–	–
[3]	–	–	–	–	–	1.38273	1.38545	1.39061	1.39176	1.39425

C[Si](O[Si](C)(c1ccccc1)c1ccccc1)(c1ccccc1)c1ccccc1 [1,3-dimethyl-1,1,3,3-tetraphenyldisiloxane] + CCO
298.15 K
Details	mass density, [2] [kg/m3]	refractive index, [3]
x1 = 0.0009	787.37	1.36085
x1 = 0.00225	789.76	1.36263
x1 = 0.00446	794.07	1.36586
x1 = 0.00667	798.07	1.36893
x1 = 0.00825	801.34	1.37139
x1 = 0.01059	805.13	1.37427
x1 = 0.01252	808.66	1.37693

C[Si](O[Si](C)(c1ccccc1)c1ccccc1)(c1ccccc1)c1ccccc1 [1,3-dimethyl-1,1,3,3-tetraphenyldisiloxane] + CO
298.15 K
Details	mass density, x1 = 0.00036 [kg/m3]	mass density, x1 = 0.0009 [kg/m3]	mass density, x1 = 0.0018 [kg/m3]	mass density, x1 = 0.00241 [kg/m3]	mass density, x1 = 0.00364 [kg/m3]	refractive index, x1 = 0.00036	refractive index, x1 = 0.0009	refractive index, x1 = 0.0018	refractive index, x1 = 0.00241	refractive index, x1 = 0.00364
[2]	787.68	789.17	791.71	793.31	796.57	–	–	–	–	–
[3]	–	–	–	–	–	1.3274	1.3287	1.33084	1.33228	1.33509

C[Si](O[Si](C)(c1ccccc1)c1ccccc1)(c1ccccc1)c1ccccc1 [1,3-dimethyl-1,1,3,3-tetraphenyldisiloxane] + C[Si]1(C)O[Si](C)(C)O[Si](C)(C)O[Si](C)(C)O1
303.15 K
Details	mass density, x1 = 0.00724 [kg/m3]	mass density, x1 = 0.01526 [kg/m3]	mass density, x1 = 0.02752 [kg/m3]	mass density, x1 = 0.04184 [kg/m3]	mass density, x1 = 0.05492 [kg/m3]	refractive index, x1 = 0.00724	refractive index, x1 = 0.01526	refractive index, x1 = 0.02752	refractive index, x1 = 0.04184	refractive index, x1 = 0.05492
[2]	946.03	947.52	949.77	952.36	954.7	–	–	–	–	–
[3]	–	–	–	–	–	1.39358	1.39553	1.3985	1.40193	1.40505
